Test results as given in US20260166211A1, “SYSTEM FOR REMOVING PROTEIN BOUND UREMIC TOXINS DURING HEMODIALYSIS” (University of Washington, priority 2022, published 2026).
Like-named read-outs stand apart in the source and are kept apart here.

Key:
human albumin (HA) [1] = biological target: T1, human albumin (HA) (Homo sapiens, UniProt P02768); experiment: SPR Langmuir isotherm of HA adsorption on ligand-functionalized sensor chips; assay type: binding; details: read-out: Kd of HA on SPR sensor modified with different ligands
T1 sequence (P02768 25-609): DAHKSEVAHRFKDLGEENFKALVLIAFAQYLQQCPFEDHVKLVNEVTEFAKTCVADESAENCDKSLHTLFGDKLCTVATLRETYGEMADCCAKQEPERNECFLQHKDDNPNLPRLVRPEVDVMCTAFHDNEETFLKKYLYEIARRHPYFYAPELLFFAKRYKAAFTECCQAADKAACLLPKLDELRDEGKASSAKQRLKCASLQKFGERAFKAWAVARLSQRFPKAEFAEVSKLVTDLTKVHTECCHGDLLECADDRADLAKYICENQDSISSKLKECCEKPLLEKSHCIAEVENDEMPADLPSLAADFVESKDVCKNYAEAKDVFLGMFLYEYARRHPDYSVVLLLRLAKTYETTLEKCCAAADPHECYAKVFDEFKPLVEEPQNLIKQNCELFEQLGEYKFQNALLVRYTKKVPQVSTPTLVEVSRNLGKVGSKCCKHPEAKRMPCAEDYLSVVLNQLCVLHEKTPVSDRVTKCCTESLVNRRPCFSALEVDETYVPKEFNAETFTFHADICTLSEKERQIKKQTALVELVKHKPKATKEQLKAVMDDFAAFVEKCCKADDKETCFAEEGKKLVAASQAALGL
Description: Langmuir Isotherm: HA was dissolved in PB to make solutions with concentration range from 0.1 mg/mL to 2.0 mg/mL for adsorption study. Such HA solutions were pumped through the flow cell in low to high sequence with 20 min. adsorption time for each solution. Between each HA adsorption session, buffer was used to rinse off unbound protein residue for 20 min. PB signal from selected reference channels was used as baseline.
Prior to further analysis, the raw SPR data, absolute maximum absorption angle versus time, was referenced to a baseline reading. A 3-point running average was applied to reduce noise.
The values of SPR signal shift (in degrees) induced by HA solutions of different concentrations were manually identified. For Langmuir adsorption model fitting, the SPR signal shifts were converted to fractional occupancy of adsorption sites (θ) by assuming 0% and 100% site occupancy under 0 mg/mL and 2 mg/mL HA solution treatment, respectively. After plotting the concentration on x-axis and θ on y-axis, the data was fitted to a Langmuir isotherm model with equation
The adsorption constant, Ka, was obtained under the best fitting condition. The desorption constant.

human albumin (HA) [2] = biological target: T1, human albumin (HA); experiment: SPR adsorption and desorption cycles of HA on functionalized chips with release agents; assay type: binding; details: for SPR angle shift after HA binding: 2 mg/mL HA, functionalized SPR chip; for Release percentage (highest observed; %) NaSCN (2M): release agent NaSCN 2M; for Release percentage (highest observed; %) SDS (35 mM): release agent SDS 35 mM; for Release percentage (highest observed; %) pH 3.6: release by pH 3.6 buffer; for release of bound HA, SPR results: CB chips, quoted for comparison with column
Description: SPR tests: A temperature controlled NanoSPR8 Model 481 device with a 4-channel flow cell was used and calibration and warm up were performed (2 hr) prior to tests. Two flow cell channels were set as reference in all tests. Basic solution with surfactant (0.1 M NaOH and 1% SDS). acidic solution (0.1 M HCl), and water were used to clean the testing flow cell and tubing system.
A phosphate buffer solution (PB) for SPR studies was prepared by dissolving 21.48 g Na2HPO4 and 3.11 g KH2PO4 in 1 L Milli-Q water for SPR tests. With this buffer a variety of solutions were prepared: NaCl. Na2SO4 and NaSCN was dissolved in the PB to prepare a 2 M solution. Sodium dodecyl sulfate (SDS) solution of 1 wt % (˜35 mM) was prepared by dissolving SDS in PB with aid of bath sonication. Fatty acid solutions were made by pipetting fatty acid into PB and bath sonicating. Linoleic acid solution (LA) included 1.8 μL of LA and 10 mL PB. Fatty acid mix solution (FA mix) was prepared by dispersing 1.8 μL linoleic acid, 1.05 μL oleic acid and 1.08 μL palmitic acid in 10 mL PB. FA mix was an inhomogeneous emulsion due to the limited solubility of fatty acids even with the aid of bath sonication.
[…] The test was carried out in sequence of HA solution, buffer rinse, releasing agent rinse, buffer rinse, in cycles after an initial PB rinse. Three absorption and desorption cycles were performed on each sample for repeatability/stability. The first two cycles used the same release agents of interest and the third cycle used a reference release agent, usually 2 M NaSCN.
Percentage of HA released by different release agents was calculated by dividing the value difference between the […] adsorption SPR peak shift value (‘Adsorb’ in FIG. 7) and post-release signal value (‘Release’ in FIG. 7) using
SPR shift has a strong dependence on solution conditions, thus one can only compare shift signals after a buffer rinse. The initial sensor baseline is set to zero. For the first cycle, after initial HA exposure and buffer rinse a shift of 0.225 is seen corresponding to full HA coverage. After LA exposure and buffer rinse a drop in shift 0.122 is seen instead of the ideal zero if HA is completely released to initial state. The percent released is calculated as (0.225-0.122)/0.225 or ˜46%. […] Even though the total amount of captured protein remains stable, an increasing amount of un-released protein over cycles was observed. Un-releasable protein was expected due to fouling onto unprotected surface of desorbed surface chemistry and practical limitations of buffer rinse times. […] SPR angle shifts and releasability percent as a function of surface functionalization and release chemical are summarized in Table 2.

[3] = biological target: T2, human albumin indoxyl sulfate complex (HA-IS) (Homo sapiens, UniProt P02768); experiment: Adsorption column of CB-functionalized agarose beads with HA-IS, BCA assay of eluent; assay type: binding; details: for release of HA bound to the column: release capacity compared to binding capacity
T2 construct: purchased Sigma-Aldrich
T2 sequence (P02768 25-609, one chain of several): as the sequence (P02768 25-609) above
Excerpt: Adsorption column (set-up): Devcon 5-minute epoxy in Dev-tube (ITW Polymer Adhesives, USA) was used on all epoxied parts of the column and was allowed to cure for an hour before use. Agarose beads functionalized with Cibacron Blue dye and suspended in 20% ethanol and 0.1 M KH2PO4 (Blue Sepharose Fast Flow 6, GE Healthcare, USA) was obtained and used as-is.
As shown at FIGS. 5A and 5C, glass tube 15a holds agarose beads functionalized with human albumin binding chemistry Cibacron Blue dye, and a barbed inlet/outlet 15b with Luer lock and needle tip is included to flow a solution in and out of glass tube 15a. An interchangeable solution reservoir feed 15c is included. Specifically, glass tube 15a (inner diameter=4 mm) was cut to 4.1 cm (0.52 mL volume). Two sheets of 10.0 μm pore size Teflon membrane filters (Sterlitech Corp., USA) covered the eluent end of the tube and were sealed around the edge with larger diameter elastic tubing (Tygon SE-200, Saint-Gobain Corp., USA) with excess membrane trimmed by knife. The tubing was secured to the tube via glass-compatible glue (Loctite, Henkel AG & Co. KGaA. Germany) and then epoxied to prevent air leakage. The beads in their suspension fluid (0.739 mL total slurry) were pipetted into the tube on top of the membrane seal and drained to form a bed of beads. The other end of the tube was sealed with membrane filters and tubing in a similar manner. Both ends 15b of the bead bed tube were connected to a Luer lock needle assembly that were epoxied to input tubing to prevent fluid leakage. The solution reservoir 15c included a syringe and a Luer lock connection. The column was suspended vertically and syringe pump (Model NE 300, New Era Pump Systems, Inc., USA) set to 4.0 mL/min with 125-250 μL samples collected at time points with lag time experimentally accounted for. Replacing of solutions occurred by switching out the syringe at the base of the Luer lock needle assembly in 15b, ensuring no air bubbles were introduced.
A phosphate buffer (PB) (pH 7.4) for the adsorption column was prepared to mimic the salt composition of human blood serum. 144.3 mg/L CaCl2), 4.26 g/L Na2HPO4, 612.4 mg/L KH2PO4, 85.7 mg/L MgCl2, and 4.68 g/L NaCl were dissolved in HPLC-grade submicron filtered water under stirring and heat, then filtered through a 10.0 μm membrane filter. NaCl was purchased from EMD Chemicals Inc. (Germany): all other chemicals were obtained from Sigma-Aldrich (USA). NaSCN, indoxyl sulfate, and HA solutions were prepared by simple dissolution in PB. 0.58 mM linoleic acid (LA) solution was prepared by pipetting liquid LA into phosphate buffer and sonicating in 10-minute increments until micelles were formed and evenly distributed, indicated by the solution becoming uniformly cloudy. Solutions of micro BCA protein assay were prepared as instructed in a kit obtained from Thermo Scientific (USA).
In cycles, phosphate buffer, HA-IS complex solution, phosphate buffer, and then release agents (linoleic acid or NaSCN) were pumped through the column and the eluent was collected. CB-functionalized beads were expected to adsorb HA-IS and cause the dissociation of IS from the captured HA. Release agents were expected to cause desorption of captured IS-free HA from the adsorption column. These adsorption and desorption behaviors were studied by optical absorbance at 280 nm of the eluent proportional to HA-IS concentration. […] Then both LA and NaSCN release HA from the adsorption column. […] Without wishing to be bound by theory, it is thought that the delayed LA release was caused by LA micelles dissolving at the buffer solution exchange front where concentration drops below the critical micelle concentration (0.1 mM) giving more free-floating molecules of LA capable of release. This release profile may be optimized by multiple shorter buffer/LA cycles.
Bicinchoninic acid (BCA) assay is a protein sensitive quantification method which was used in this example to measure the concentration of HA. […]

HSA = HSA (Homo sapiens, UniProt P02768); experiment: HSA adsorption/desorption on Cibacron blue column with LA solutions of varying concentration; assay type: binding; details: LA 8 μl/10 ml, HSA 40 mg/ml, CB beads
Sequence of HSA (P02768 25-609): as above
Description: To test the aforementioned hypotheses, a series of experiments were conducted using LA solutions of varying concentrations and HSA solutions with a concentration of 40 mg/ml. […] The first adsorption-desorption cycle was executed with phosphate buffer serving as a mock release agent to reveal the actual desorption strength of the release agent. The amount of HSA released by LA was quantified by integrating the area beneath the release session curve and subtracting the baseline corresponding to the phosphate buffer rinse. This value represents the fraction of HSA that can be manipulated by the LA solution in a reversible manner. In this context, the adsorption of this fraction of HSA onto the Cibacron blue functionalized beads (CB beads) was considered reversible by LA. Subsequently, the reversible adsorption capacity of CB beads and the albumin release peak height, from FIG. 11A, were plotted against the LA solution concentration, as shown in FIG. 11B.

[4] = cited from earlier work
[5] = with respect to a monolayer protein binding signal strength

## Nc1c(S(=O)(=O)O)cc(Nc2ccc(Nc3nc(Cl)nc(Nc4ccccc4S(=O)(=O)O)n3)c(S(=O)(=O)O)c2)c2c1C(=O)c1ccccc1C2=O [Cibacron Blue]
Human albumin (HA) [1]
  Kd: 3000 nM
Human albumin (HA) [2]; listed as CB
  SPR angle shift after HA binding: 0.25 °
Human albumin (HA) [2]; listed as Cibacron Blue (CB)
  SPR angle shift after HA binding: ~0.25 °
Human albumin (HA) [2]; average over chips (CB n=76; capric acid n=50)
  monolayer averaged SPR signal shift: 0.23 °
Human albumin (HA) [2]; release agent Na2SO4 2M
  Release percentage (highest observed; %) Na2SO4 (2M): 12.7%
Human albumin (HA) [2]; release agent NaCl 2M
  Release percentage (highest observed; %) NaCl (2M): 34%
Human albumin (HA) [2]
  Release percentage (highest observed; %) NaSCN (2M): 78.0%
  Release percentage (highest observed; %) SDS (35 mM): 93.0%
  Release percentage (highest observed; %) pH 3.6: 0%
Human albumin (HA) [2]; release agent fatty acid mix
  Release percentage (highest observed; %) FA mix: 49.5%
Human albumin (HA) [2]; release agent lbp 0.1 mM
  Release percentage (highest observed; %) lbp (0.1 mM): 0%
Human albumin (HA) [2]; release agent linoleic acid 0.6 mM
  Release percentage (highest observed; %) LA (0.6 mM): 44.1%
Human albumin (HA) [2]; [5]
  Human serum albumin desorption percent, release agent Fatty Acid Mix: 37.4 ± 14.2%
  Human serum albumin desorption percent, release agent Linoleic Acid: 31.0 ± 18.9%
  Human serum albumin desorption percent, release agent NaSCN: 65.0 ± 12.3%

## Nc1ccc2c(O)c(N=Nc3ccc(N=Nc4ccc(N=Nc5cc(S(=O)(=O)[O-])c6cccc(S(=O)(=O)[O-])c6c5)c5ccccc45)c4ccc(S(=O)(=O)[O-])cc34)c(S(=O)(=O)[O-])cc2c1.[Na+].[Na+].[Na+].[Na+] [Direct Blue 71]
Human albumin (HA) [1]; HA 0.1-2.0 mg/mL in PB, Langmuir fit, Kd=1/Ka
  Kd: 1100 nM
Human albumin (HA) [2]
  SPR angle shift after HA binding: ~0.19 °
  Release percentage (highest observed; %) NaSCN (2M): 0%
  Release percentage (highest observed; %) SDS (35 mM): 0%
Human albumin (HA) [2]; listed as DB71
  SPR angle shift after HA binding: 0.19 °

## CCCCC/C=C\C/C=C\CCCCCCCC(=O)O [LA, linoleic acid]
Human albumin (HA) [2]; SPR
  release of bound HA, SPR results: 31%
Human albumin (HA) [2]; SPR, CB surface, concentrations of about 0.5 μg/mL
  albumin release capacity on CB surface: 44.1%
[3]; CB-agarose bead column, summary b116
  release capacity: ~0.2 μmol HA/mL beads
[3]; CB-agarose bead column, summary b116, per mL beads
  release capacity: 13.5 mg/mL
[3]; Cibacron blue agarose beads, plasma compatible linoleic acid as release agent
  release amounts: 0.23 μmol HA/mL beads
[3]; cycle 1, CB-agarose bead column, BCA assay
  release capacity: 0.177 μmol HA/mL beads
[3]; cycle 2, CB-agarose bead column, BCA assay
  release capacity: 0.232 μmol HA/mL beads
[3]
  release of HA bound to the column: at least 47%
[3]; value from the previous study
  HSA desorption capacity, previous study: 15.3 mg/ml beads
HSA
  HSA desorption capacity: 19.44 mg/ml beads
[4]
  solubility in water: insoluble

## N#C[S-].[Na+] [NaSCN, reference compound]
Human albumin (HA) [2]; SPR
  release of bound HA, SPR results: 65%
[3]; cycle 3, CB-agarose bead column, BCA assay
  release capacity: 0.292 μmol HA/mL beads
[3]
  release of HA bound to the column: ≥ 79%

## CCCCCCCC [Octane (C8; Alkane), Octane]
Human albumin (HA) [2]
  SPR angle shift after HA binding: ~0.11 °
  Release percentage (highest observed; %) NaSCN (2M): 51.4%
  Release percentage (highest observed; %) SDS (35 mM): 29.5%
Human albumin (HA) [2]; listed as Octane
  SPR angle shift after HA binding: 0.110 °

## N[C@@H](Cc1c[nH]c2ccccc12)C(=O)O [Tryptophan (COOH term), Tryptophan]
Human albumin (HA) [2]
  SPR angle shift after HA binding: ~0.19 °
  Release percentage (highest observed; %) NaSCN (2M): 0%
  Release percentage (highest observed; %) pH 3.6: 0%
Human albumin (HA) [2]; listed as tryptophan of —COOH terminus
  SPR angle shift after HA binding: 0.19 °

## N[C@@H](Cc1c[nH]c2ccccc12)C(=O)O [Tryptophan (NH2 term), Tryptophan]
Human albumin (HA) [2]
  SPR angle shift after HA binding: ~0.17 °
  Release percentage (highest observed; %) NaSCN (2M): 15.0%
  Release percentage (highest observed; %) SDS (35 mM): 0%
  Release percentage (highest observed; %) pH 3.6: 0%
Human albumin (HA) [2]; listed as tryptophan of —NH2 terminus
  SPR angle shift after HA binding: 0.170 °
